# Test results: PMC7933930, “Development of a small molecule that corrects misfolding and increases secretion of Z α1‐antitrypsin” (EMBO Molecular Medicine, 2021)
# Assays:
# [1] = molecular target: Adrenergic α1B (Homo sapiens, UniProt P35368); test: Off‐target panel: Adrenergic α1B (DRX); type: cell-based
# Protocol: (§1) GSK716 selectivity and PK properties were profiled in order to investigate the suitability of GSK716 for progression into in vivo studies and the potential for taking it forward as a clinical candidate for testing in humans. Since GSK716 results in loss of inhibitory activity of α1‐antitrypsin, the effect of the compound was assessed on other closely related serpins. […] Furthermore, there were no off‐target effects in a panel of assays considered predictive of known safety liabilities that precluded further development of GSK716 (Table EV1).
# [2] = molecular target: Dopamine D1 (Homo sapiens, UniProt P21728); test: Off‐target panel: Dopamine D1; type: cell-based
# Dopamine D1, sequence (P21728 whole entry): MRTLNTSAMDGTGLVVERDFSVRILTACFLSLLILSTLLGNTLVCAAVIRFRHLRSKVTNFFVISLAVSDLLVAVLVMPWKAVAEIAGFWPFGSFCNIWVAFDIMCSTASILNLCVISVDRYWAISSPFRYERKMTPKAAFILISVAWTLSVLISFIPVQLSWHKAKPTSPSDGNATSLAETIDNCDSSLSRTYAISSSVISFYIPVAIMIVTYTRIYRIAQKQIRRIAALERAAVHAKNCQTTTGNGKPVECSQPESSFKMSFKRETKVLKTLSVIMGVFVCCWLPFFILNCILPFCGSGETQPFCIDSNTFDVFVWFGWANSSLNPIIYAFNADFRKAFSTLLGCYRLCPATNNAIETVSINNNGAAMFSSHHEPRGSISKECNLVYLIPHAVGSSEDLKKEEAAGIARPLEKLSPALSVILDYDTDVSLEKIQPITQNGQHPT
# Protocol: as §1
# [3] = molecular target: T1, Z α1‐antitrypsin (Homo sapiens, UniProt P01009, E366K); test: Association kinetics by intrinsic tryptophan fluorescence (stopped flow), Z α1‐antitrypsin; type: binding; set-up: purified from the plasma of Z α1‐antitrypsin homozygotes; from tissue; host or cells: human plasma of Z α1-antitrypsin homozygotes
# T1 sequence (P01009 25-418 E366K): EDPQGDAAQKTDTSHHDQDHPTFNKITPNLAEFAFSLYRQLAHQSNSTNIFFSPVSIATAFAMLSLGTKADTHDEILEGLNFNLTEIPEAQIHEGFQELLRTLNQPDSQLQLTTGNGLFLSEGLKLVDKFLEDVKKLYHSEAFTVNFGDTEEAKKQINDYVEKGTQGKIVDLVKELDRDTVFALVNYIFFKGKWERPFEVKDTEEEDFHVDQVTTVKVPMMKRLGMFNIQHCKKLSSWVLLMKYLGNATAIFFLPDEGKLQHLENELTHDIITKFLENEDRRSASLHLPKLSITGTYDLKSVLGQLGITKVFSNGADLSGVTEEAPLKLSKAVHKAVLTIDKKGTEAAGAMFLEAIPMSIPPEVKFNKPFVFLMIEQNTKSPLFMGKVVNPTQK
# Source text: The shape of the curves and native mass spectrometry (not shown) are consistent with a single high‐affinity compound binding site. No binding of the fluorescent derivative to polymers of Z α1‐antitrypsin was observed, indicating conformational selectivity for the monomeric protein (Fig 1D). The rate of interaction of the compound with the target was monitored through changes in intrinsic tryptophan fluorescence (Dafforn et al, 1999); this property was used to determine the second‐order association rate constants for GSK716 binding to Z (4.1 × 10^4 M^−1 s^−1) and M α1‐antitrypsin (2.1 × 10^2 M^−1 s^−1; Fig 1E and F). […] Therefore, the selectivity of the compound for Z over M α1‐antitrypsin is dominated by the difference in the rate of association rather than dissociation.
# Kinetic parameters of GSK716 binding to M, Z, S (Glu264Val) and Baghdad (Ala336Pro) (Haq et al, 2016) α1‐antitrypsin were measured by detecting intrinsic tryptophan fluorescence of the protein (excitation at 280 nm and detection of emission at 320 nm) on a stopped flow apparatus (Applied Photophysics) (Kim & Yu, 1996; Dafforn et al, 1999). A competition assay for binding to M α1‐antitrypsin and Z α1‐antitrypsin and Z α1‐antitrypsin polymers (Lomas et al, 1993; Irving et al, 2011; Haq et al, 2013), based on an Alexa488‐labelled analogue of GSK716 (A488‐GSK716), was used to determine the binding affinity of test compounds.
# [4] = molecular target: T1, Z α1‐antitrypsin; test: Stoichiometry of inhibition against chymotrypsin, Z α1‐antitrypsin; type: biochemical; set-up: purified from the plasma of Z α1‐antitrypsin homozygotes; from tissue; host or cells: human plasma of Z α1-antitrypsin homozygotes; details: Z α1‐antitrypsin pre‐incubated with GSK716 (50µM), read-out: loss of protease inhibitory activity
# Protocol: Mutations that interfere with the opening of β‐sheet A or that perturb its interaction with the N‐terminal portion of the reactive centre loop alter the ability of serpins to inhibit target proteases (Hood et al, 1994; Irving et al, 2014). The stoichiometry of inhibition (SI) was determined for M α1‐antitrypsin and Z α1‐antitrypsin in discontinuous experiments against a model target protease, chymotrypsin. The pre‐incubation of both variants with GSK716 led to a > 98% loss of protease inhibitory activity (Fig 5A).
# Figure 5 The effect of GSK716 on serpin inhibitory activity • α1‐Antitrypsin was incubated at varying molar ratios with the model protease bovine α‐chymotrypsin, and the residual protease activity determined. […] The position of covalent α1‐antitrypsin‐chymotrypsin complex (cpx), native (nat) and cleaved (clv) is shown. • The inhibitory activity of α1‐antichymotrypsin against chymotrypsin (ach + chym), neuroserpin against trypsin (neus + tryp), and antithrombin against thrombin (atiii + thrombin) was determined in the presence and absence of GSK716. […]
# The native state stability of α1‐antitrypsin on addition of compounds was investigated by thermal denaturation in the presence of a 5X concentration of SYPRO Orange dye solution (Life Technologies) (Nettleship et al, 2008). Resistance to heat‐induced polymerisation was determined using an end‐point constant‐temperature assay. […]
# Adrenergic α1B, sequence (P35368 whole entry): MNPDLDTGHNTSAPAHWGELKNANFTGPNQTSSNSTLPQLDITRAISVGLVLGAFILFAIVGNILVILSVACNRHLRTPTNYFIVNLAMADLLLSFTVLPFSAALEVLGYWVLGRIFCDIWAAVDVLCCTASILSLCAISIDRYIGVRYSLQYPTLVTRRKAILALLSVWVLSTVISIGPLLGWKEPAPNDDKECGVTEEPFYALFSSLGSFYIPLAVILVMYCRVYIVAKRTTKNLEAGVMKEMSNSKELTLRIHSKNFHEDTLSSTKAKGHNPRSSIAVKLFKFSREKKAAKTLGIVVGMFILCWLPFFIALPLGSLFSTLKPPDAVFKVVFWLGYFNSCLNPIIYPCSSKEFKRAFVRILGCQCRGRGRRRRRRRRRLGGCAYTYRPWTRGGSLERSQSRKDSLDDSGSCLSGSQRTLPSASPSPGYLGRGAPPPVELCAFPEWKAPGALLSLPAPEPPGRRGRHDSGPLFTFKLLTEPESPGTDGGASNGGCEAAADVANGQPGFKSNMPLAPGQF
structure (smiles),measurement,setting,value
CCC[C@@H](NC(=O)c1cccc2c1CC(=O)N2)[C@@H](O)c1cccc(F)c1C [GSK716],IC50,[1],> 25.1 µM
same,IC50,[2],> 100 µM
same,time of change in Z α1‐antitrypsin fluorescence on association (faster than dead‐time of the apparatus),"[3]; 10 µM GSK716, 0.2 mg/ml protein",< 10 s
same,koff,"[3]; Z α1‐antitrypsin, calculated from association rate constant and affinity, read-out: first‐order dissociation rate constant",6.1e-05 s⁻¹
same,kon,"[3]; Z α1‐antitrypsin, read-out: second‐order association rate constant",41000 M⁻¹ s⁻¹
same,inhibition at 50 µM,[4],> 98%
